# Results reported in PMC10175918 (Communications Biology, 2023).
# “And” between values parts separate entries of the source, which are not always exact repeats. Equal entries are not always repeated. Where two headings read alike, the source gives them in different places.
# Key:
# [1] = target: T1, 5-hydroxytryptamine receptor 1E (Homo sapiens, UniProt P28566); assay: cell-based; design: species or system HEK293A; AP-TGFα shedding assay, transfected GPCR plus chimeric Gα mixture, AP release as % of TPA response; details: HEK293-A
# T1 construct: gene HTR1E
# [2] = target: T2, G protein-coupled receptor 68 long (Homo sapiens, UniProt Q15743); assay: cell-based; design: species or system HEK293A; AP-TGFα shedding assay, transfected GPCR plus chimeric Gα mixture, AP release as % of TPA response; details: HEK293-A
# T2 construct: gene GPR68; long isoform
# [3] = target: T3, chemerin chemokine-like receptor 1 (Homo sapiens, UniProt Q99788); assay: cell-based; design: species or system HEK293A; AP-TGFα shedding assay, transfected GPCR plus chimeric Gα mixture, AP release as % of TPA response; details: HEK293-A
# T3 construct: gene CMKLR1
# T3 sequence (Q99788 1-373): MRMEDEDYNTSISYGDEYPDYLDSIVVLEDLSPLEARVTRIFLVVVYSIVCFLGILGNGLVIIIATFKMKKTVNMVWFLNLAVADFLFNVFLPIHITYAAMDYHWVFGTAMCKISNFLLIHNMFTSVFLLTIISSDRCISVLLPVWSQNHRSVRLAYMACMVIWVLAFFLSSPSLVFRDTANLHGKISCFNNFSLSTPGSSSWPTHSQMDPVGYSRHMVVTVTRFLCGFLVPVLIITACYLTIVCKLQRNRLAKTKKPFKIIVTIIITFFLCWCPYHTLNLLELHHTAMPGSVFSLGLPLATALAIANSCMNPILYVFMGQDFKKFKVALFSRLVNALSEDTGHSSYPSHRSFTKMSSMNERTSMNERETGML
# [4] = target: T4, chemokine (C-X3-C motif) receptor 1 (Homo sapiens, UniProt P49238); assay: cell-based; design: species or system HEK293A; AP-TGFα shedding assay, transfected GPCR plus chimeric Gα mixture, AP release as % of TPA response; details: HEK293-A
# T4 construct: gene CX3CR1
# T4 sequence (P49238 1-355): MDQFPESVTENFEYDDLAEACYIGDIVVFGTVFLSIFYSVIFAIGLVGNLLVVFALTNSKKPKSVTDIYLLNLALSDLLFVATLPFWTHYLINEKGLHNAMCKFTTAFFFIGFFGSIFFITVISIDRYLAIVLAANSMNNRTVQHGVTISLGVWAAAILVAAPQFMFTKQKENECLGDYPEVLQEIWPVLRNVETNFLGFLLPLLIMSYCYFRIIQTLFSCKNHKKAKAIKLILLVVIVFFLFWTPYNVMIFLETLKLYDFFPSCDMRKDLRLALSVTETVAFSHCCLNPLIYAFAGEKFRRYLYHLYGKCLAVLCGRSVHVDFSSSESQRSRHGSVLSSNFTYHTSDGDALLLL
# [5] = target: T5, neurotensin receptor type 2 (Homo sapiens, UniProt O95665); assay: cell-based; design: species or system HEK293A; AP-TGFα shedding assay, transfected GPCR plus chimeric Gα mixture, AP release as % of TPA response; details: HEK293-A
# T5 construct: gene NTSR2
# [6] = target: T6, relaxin/insulin-like family peptide receptor 2 (Homo sapiens, UniProt Q8WXD0); assay: cell-based; design: species or system HEK293A; AP-TGFα shedding assay, transfected GPCR plus chimeric Gα mixture, AP release as % of TPA response; details: HEK293-A
# T6 construct: gene RXFP2
# [7] = target: T7, urotensin-II receptor (UTS2R) (Homo sapiens, UniProt Q9UKP6); assay: TGFα-shedding assay, concentration-response on UTS2R (endogenous G protein), with or without urantide; assay type: cell-based
# T7 construct: expressed in transfected cells; host or cells: HEK293A
# T7 sequence (Q9UKP6 1-389): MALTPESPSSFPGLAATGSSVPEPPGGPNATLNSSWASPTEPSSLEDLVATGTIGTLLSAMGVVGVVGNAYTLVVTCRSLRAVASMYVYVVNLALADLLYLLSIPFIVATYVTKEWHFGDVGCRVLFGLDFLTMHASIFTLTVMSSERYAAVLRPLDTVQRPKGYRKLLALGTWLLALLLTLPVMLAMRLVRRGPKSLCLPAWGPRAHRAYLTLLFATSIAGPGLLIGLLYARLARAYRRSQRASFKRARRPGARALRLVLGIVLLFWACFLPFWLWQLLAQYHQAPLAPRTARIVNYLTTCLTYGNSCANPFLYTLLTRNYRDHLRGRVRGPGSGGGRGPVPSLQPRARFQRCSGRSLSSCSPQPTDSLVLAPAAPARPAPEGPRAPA
# [8] = test system: UTS2R D130G; assay: TGFα-shedding assay on UTS2R SNV mutant D130G; assay type: cell-based, human; details: cutoff value set to −1, single replicates
# [9] = test system: ERK1/2 phosphorylation in HEK293 cells overexpressing UTS2R; assay: Western blot of ERK1/2 phosphorylation in HEK293 cells overexpressing UTS2R; assay type: cell-based, human; details: application for up to 72 h
# [10] = cited from earlier work
# [11] = read-out: % GPCR activation of 10μM GS441524 compared to TPA
# [12] = read-out: % GPCR activation of 10µM Remdesivir compared to TPA
# [13] = read-out: % GPCR activation of 10μM Sofosbuvir compared to TPA
# [14] = read-out: % GPCR activation of 100μM Favipiravir compared to TPA
# [15] = read-out: % GPCR activation of 10µM Molnupiravir compared to TPA
# T5 sequence (O95665 whole entry): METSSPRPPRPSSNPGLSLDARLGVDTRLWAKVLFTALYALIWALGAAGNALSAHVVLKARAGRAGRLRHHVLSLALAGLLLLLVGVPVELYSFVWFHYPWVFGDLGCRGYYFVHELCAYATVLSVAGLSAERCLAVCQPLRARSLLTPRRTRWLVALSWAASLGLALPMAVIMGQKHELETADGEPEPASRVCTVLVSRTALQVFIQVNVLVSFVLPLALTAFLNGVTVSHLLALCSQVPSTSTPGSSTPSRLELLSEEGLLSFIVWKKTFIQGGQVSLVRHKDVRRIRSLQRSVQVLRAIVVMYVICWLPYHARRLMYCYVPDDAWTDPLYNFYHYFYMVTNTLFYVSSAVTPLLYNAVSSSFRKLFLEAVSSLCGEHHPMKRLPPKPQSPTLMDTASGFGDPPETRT
# T2 sequence (Q15743 whole entry, canonical isoform): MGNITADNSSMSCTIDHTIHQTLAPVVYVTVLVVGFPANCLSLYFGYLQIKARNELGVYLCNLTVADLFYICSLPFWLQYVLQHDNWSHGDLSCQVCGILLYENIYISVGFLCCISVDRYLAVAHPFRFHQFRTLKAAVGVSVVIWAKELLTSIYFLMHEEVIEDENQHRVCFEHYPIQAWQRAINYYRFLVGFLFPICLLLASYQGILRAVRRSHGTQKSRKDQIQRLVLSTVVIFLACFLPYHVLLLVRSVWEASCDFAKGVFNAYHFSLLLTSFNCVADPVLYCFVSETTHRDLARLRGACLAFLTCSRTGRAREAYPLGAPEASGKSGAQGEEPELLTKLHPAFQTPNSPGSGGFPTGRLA
# T1 sequence (P28566 whole entry): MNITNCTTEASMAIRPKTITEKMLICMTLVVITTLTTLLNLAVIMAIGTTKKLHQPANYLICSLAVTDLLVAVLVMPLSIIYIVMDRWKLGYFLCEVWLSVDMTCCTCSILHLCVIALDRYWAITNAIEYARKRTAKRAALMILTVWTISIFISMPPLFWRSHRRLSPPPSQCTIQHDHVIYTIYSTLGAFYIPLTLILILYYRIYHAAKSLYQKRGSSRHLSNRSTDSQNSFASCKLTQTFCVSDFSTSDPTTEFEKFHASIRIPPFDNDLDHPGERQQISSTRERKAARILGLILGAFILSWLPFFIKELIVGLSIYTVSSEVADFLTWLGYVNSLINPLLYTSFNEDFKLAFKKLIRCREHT
# T6 sequence (Q8WXD0 whole entry): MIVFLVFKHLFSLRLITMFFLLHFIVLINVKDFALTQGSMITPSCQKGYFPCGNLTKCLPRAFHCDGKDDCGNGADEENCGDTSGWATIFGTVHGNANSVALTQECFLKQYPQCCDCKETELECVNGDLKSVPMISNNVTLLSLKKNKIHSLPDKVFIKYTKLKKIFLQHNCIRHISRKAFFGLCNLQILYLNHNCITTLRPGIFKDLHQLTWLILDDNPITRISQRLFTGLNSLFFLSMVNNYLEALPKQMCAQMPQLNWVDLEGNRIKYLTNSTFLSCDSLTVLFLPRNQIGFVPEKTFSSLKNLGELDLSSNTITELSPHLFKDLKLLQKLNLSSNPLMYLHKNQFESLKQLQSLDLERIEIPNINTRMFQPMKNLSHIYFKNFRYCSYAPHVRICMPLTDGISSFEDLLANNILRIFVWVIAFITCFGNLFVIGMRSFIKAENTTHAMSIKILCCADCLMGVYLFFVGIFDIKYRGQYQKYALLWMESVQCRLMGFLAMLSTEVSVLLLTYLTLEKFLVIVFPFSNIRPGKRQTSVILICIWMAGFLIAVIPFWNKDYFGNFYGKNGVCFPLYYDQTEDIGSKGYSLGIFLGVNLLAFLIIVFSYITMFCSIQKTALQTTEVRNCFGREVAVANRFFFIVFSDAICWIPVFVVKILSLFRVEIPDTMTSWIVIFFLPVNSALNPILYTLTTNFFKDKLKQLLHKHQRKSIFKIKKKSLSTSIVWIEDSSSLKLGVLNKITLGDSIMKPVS
smiles,measurement,setting,value
N#C[C@@]1(c2ccc3c(N)ncnn23)O[C@H](CO)[C@@H](O)[C@H]1O [GS441524],activity at 10 µM,[1]; [11],-1.38%
same,activity at 10 µM,[2]; [11],3.27%
same,activity at 10 µM,[3]; [11],-4.93%
same,activity at 10 µM,[4]; [11],-0.521%
same,activity at 10 µM,[5]; [11],1.01%
same,activity at 10 µM,[6]; [11],-1.3%
CCC(CC)COC(=O)[C@H](C)N[P@](=O)(OC[C@H]1O[C@@](C#N)(c2ccc3c(N)ncnn23)[C@H](O)[C@@H]1O)Oc1ccccc1 [remdesivir],Emax,[7],47 ± 1.4%
same,EC50,"[7]; WT EC50 (Remdesivir), wild-type UTS2R control run alongside the mutant",17.4 µM and 15.9 µM and 10.7 µM and 14 µM and 10.2 µM and 10.8 µM and 12.4 µM (2×) and 18 µM and 11.6 µM and 18.5 µM
same,EC50,"[7]; pEC50 (TGFα-shedding response for UTS2R), WT UTS2R, without chimeric Gα protein, HEK293A cells",12.9 µM
same,activation at 10 µM,"[7]; read-out: UTS2R activation (%AP-TGFα release), compound concentration Log10 (M) -5, without urantide",15%
same,activation at 3.3 µM,"[7]; read-out: UTS2R activation (%AP-TGFα release), compound concentration Log10 (M) -5.48149, without urantide",7.9%
same,⊿pEC50 compared to WT UTS2R,[8],> 0.3 and 0.2569 and 0.39 and 0.2404 and 0.3246
same,phosphorylation of ERK1/2,[9],long-lasting and dose-dependent phosphorylation of ERK1/2
same,"patients showing arrhythmias (other than atrial fibrillation, supraventricular tachycardia, ventricular tachycardia, ventricular fibrillation)","[10]; ACTT-1 trial, patients receiving remdesivir",0.2 % of patients
same,time to resolution of cardiac adverse effects after discontinuing remdesivir,[10],24 to 48 h
same,activity at 10 µM,[1]; [12],-0.0718%
same,activity at 10 µM,[2]; [12],-2.93%
same,activity at 10 µM,[3]; [12],-1.38%
same,activity at 10 µM,[4]; [12],2.08%
same,activity at 10 µM,[5]; [12],-1.86%
same,activity at 10 µM,[6]; [12],0.369%
CC(C)OC(=O)[C@H](C)N[P@](=O)(OC[C@H]1O[C@@H](n2ccc(=O)[nH]c2=O)[C@](C)(F)[C@@H]1O)Oc1ccccc1 [sofosbuvir],UTS2R activation,"[7]; TGFα-shedding, screening 10 μM and response curves (Fig. 1a, Supplementary Fig. 1a)",did not activate UTS2R
same,activity at 10 µM,[1]; [13],-1.21%
same,activity at 10 µM,[2]; [13],-162%
same,activity at 10 µM,[3]; [13],-0.939%
same,activity at 10 µM,[4]; [13],0.247%
same,activity at 10 µM,[5]; [13],0.255%
same,activity at 10 µM,[6]; [13],-1.51%
"NC(=O)c1nc(F)cnc1O [favipiravir, 6-fluoro-3-hydroxy-2-pyrazinecarboxamide]",activity at 100 µM,[1]; [14],0.555%
same,activity at 100 µM,[2]; [14],5.02%
same,activity at 100 µM,[3]; [14],2.98%
same,activity at 100 µM,[4]; [14],0.0634%
same,activity at 100 µM,[5]; [14],-3.41%
same,activity at 100 µM,[6]; [14],-0.673%
CC(C)C(=O)OC[C@H]1O[C@@H](n2ccc(NO)nc2=O)[C@H](O)[C@@H]1O [molnupiravir],activity at 10 µM,[1]; [15],-0.994%
same,activity at 10 µM,[2]; [15],-160%
same,activity at 10 µM,[3]; [15],-0.313%
same,activity at 10 µM,[4]; [15],-0.579%
same,activity at 10 µM,[5]; [15],0.128%
same,activity at 10 µM,[6]; [15],-1.68%
